Test results from PubChem BioAssay (NCI).
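At the GI50, growth is halved. TGI: concentration producing complete growth inhibition.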

Experiments:
Assay in all cases: NCI-60 cell line screen, 384-well format
K-562 leukemia = test system: K-562 leukemia
DU-145 prostate = test system: DU-145 prostate
HCT-116 colon = test system: HCT-116 colon
LOX IMVI melanoma = test system: LOX IMVI melanoma
OVCAR-4 ovarian = test system: OVCAR-4 ovarian
SF-295 CNS = test system: SF-295 CNS
SF-268 CNS = test system: SF-268 CNS
HCT-15 colon = test system: HCT-15 colon
HS 578T breast = test system: HS 578T breast
MALME-3M melanoma = test system: MALME-3M melanoma
NCI-H322M lung = test system: NCI-H322M lung
A549 NSCLC = test system: A549 NSCLC
MDA-MB-435 melanoma = test system: MDA-MB-435 melanoma
SNB-19 CNS = test system: SNB-19 CNS
HOP-62 NSCLC = test system: HOP-62 NSCLC
COLO 205 colon = test system: COLO 205 colon
NCI-H23 lung = test system: NCI-H23 lung
BT-549 breast = test system: BT-549 breast
MCF7 breast = test system: MCF7 breast
SNB-75 CNS = test system: SNB-75 CNS
A498 renal = test system: A498 renal
NCI-H460 NSCLC = test system: NCI-H460 NSCLC
SF-539 CNS = test system: SF-539 CNS
UACC-257 melanoma = test system: UACC-257 melanoma
SK-OV-3 ovarian = test system: SK-OV-3 ovarian
EKVX NSCLC = test system: EKVX NSCLC
U251 glioblastoma = test system: U251 glioblastoma
NCI/ADR-RES ovarian = test system: NCI/ADR-RES ovarian
M14 melanoma = test system: M14 melanoma
PC-3 prostate = test system: PC-3 prostate
IGROV1 ovarian = test system: IGROV1 ovarian
RPMI-8226 leukemia = test system: RPMI-8226 leukemia
OVCAR-5 ovarian = test system: OVCAR-5 ovarian
UACC-62 melanoma = test system: UACC-62 melanoma
SW-620 colon = test system: SW-620 colon
NCI-H522 lung = test system: NCI-H522 lung
HT29 colon = test system: HT29 colon
HOP-92 NSCLC = test system: HOP-92 NSCLC
HCC-2998 colon = test system: HCC-2998 colon
NCI-H226 lung = test system: NCI-H226 lung
MDA-MB-468 breast = test system: MDA-MB-468 breast
TK-10 renal = test system: TK-10 renal
MOLT-4 leukemia = test system: MOLT-4 leukemia
ACHN renal = test system: ACHN renal
MDA-MB-231 breast = test system: MDA-MB-231 breast
SN12C renal = test system: SN12C renal
KM12 colon = test system: KM12 colon
UO-31 renal = test system: UO-31 renal
OVCAR-8 ovarian = test system: OVCAR-8 ovarian
CCRF-CEM leukemia = test system: CCRF-CEM leukemia
SK-MEL-5 melanoma = test system: SK-MEL-5 melanoma
OVCAR-3 ovarian = test system: OVCAR-3 ovarian
T-47D breast = test system: T-47D breast
RXF 393 renal = test system: RXF 393 renal
786-0 renal = test system: 786-0 renal
SK-MEL-28 melanoma = test system: SK-MEL-28 melanoma
CAKI-1 renal = test system: CAKI-1 renal

SMILES: COc1ncc(Nc2ncc([C@@H](C)N3CCN(S(C)(=O)=O)CC3)cc2-c2nc(C)nc(N)n2)cc1F
- GI50 (K-562 leukemia): 4540 nM
- TGI (K-562 leukemia): > 100000 nM
- GI50 (DU-145 prostate): 651 nM
- TGI (DU-145 prostate): > 100000 nM
- GI50 (HCT-116 colon): 2790 nM
- TGI (HCT-116 colon): > 100000 nM
- GI50 (LOX IMVI melanoma): 552 nM
- TGI (LOX IMVI melanoma): 5650 nM
- GI50 (OVCAR-4 ovarian): 2250 nM
- TGI (OVCAR-4 ovarian): > 100000 nM
- GI50 (SF-295 CNS): 49.8 nM
- TGI (SF-295 CNS): 2100 nM
- GI50 (SF-268 CNS): < 10 nM
- TGI (SF-268 CNS): 88.9 nM
- GI50 (HCT-15 colon): 465 nM
- TGI (HCT-15 colon): > 100000 nM
- GI50 (HS 578T breast): 17 nM
- TGI (HS 578T breast): 333 nM
- GI50 (MALME-3M melanoma): 1040 nM
- TGI (MALME-3M melanoma): > 100000 nM
- GI50 (NCI-H322M lung): 367 nM
- TGI (NCI-H322M lung): 27900 nM
- GI50 (A549 NSCLC): 138 nM
- TGI (A549 NSCLC): 11900 nM
- GI50 (MDA-MB-435 melanoma): 2310 nM
- TGI (MDA-MB-435 melanoma): > 100000 nM
- GI50 (SNB-19 CNS): 4730 nM
- TGI (SNB-19 CNS): > 100000 nM
- GI50 (HOP-62 NSCLC): 1940 nM
- TGI (HOP-62 NSCLC): 83700 nM
- GI50 (COLO 205 colon): 275 nM
- TGI (COLO 205 colon): 67800 nM
- GI50 (NCI-H23 lung): 1950 nM
- TGI (NCI-H23 lung): > 100000 nM
- GI50 (BT-549 breast): 53.3 nM
- TGI (BT-549 breast): 6330 nM
- GI50 (MCF7 breast): 40.7 nM
- TGI (MCF7 breast): 27600 nM
- GI50 (SNB-75 CNS): < 10 nM
- TGI (SNB-75 CNS): 48.1 nM
- GI50 (A498 renal): 32.2 nM
- TGI (A498 renal): 337 nM
- GI50 (NCI-H460 NSCLC): 71.1 nM
- TGI (NCI-H460 NSCLC): > 100000 nM
- GI50 (SF-539 CNS): 179 nM
- TGI (SF-539 CNS): 4150 nM
- GI50 (UACC-257 melanoma): 488 nM
- TGI (UACC-257 melanoma): 60500 nM
- GI50 (SK-OV-3 ovarian): 96.5 nM
- TGI (SK-OV-3 ovarian): 10400 nM
- GI50 (EKVX NSCLC): 73.3 nM
- TGI (EKVX NSCLC): 5230 nM
- GI50 (U251 glioblastoma): 1010 nM
- TGI (U251 glioblastoma): > 100000 nM
- GI50 (NCI/ADR-RES ovarian): 3390 nM
- TGI (NCI/ADR-RES ovarian): > 100000 nM
- GI50 (M14 melanoma): 1280 nM
- TGI (M14 melanoma): > 100000 nM
- GI50 (PC-3 prostate): 33.6 nM
- TGI (PC-3 prostate): 18600 nM
- GI50 (IGROV1 ovarian): < 10 nM
- TGI (IGROV1 ovarian): 43.3 nM
- GI50 (RPMI-8226 leukemia): 2800 nM
- TGI (RPMI-8226 leukemia): 8440 nM
- GI50 (OVCAR-5 ovarian): 160 nM
- TGI (OVCAR-5 ovarian): 16800 nM
- GI50 (UACC-62 melanoma): 30.4 nM
- TGI (UACC-62 melanoma): 1450 nM
- GI50 (SW-620 colon): 3800 nM
- TGI (SW-620 colon): > 100000 nM
- GI50 (NCI-H522 lung): 1630 nM
- TGI (NCI-H522 lung): 19500 nM
- GI50 (HT29 colon): 139 nM
- TGI (HT29 colon): > 100000 nM
- GI50 (HOP-92 NSCLC): 24.6 nM
- TGI (HOP-92 NSCLC): 1220 nM
- GI50 (HCC-2998 colon): 1230 nM
- TGI (HCC-2998 colon): 38200 nM
- GI50 (NCI-H226 lung): 1300 nM
- TGI (NCI-H226 lung): 13700 nM
- GI50 (MDA-MB-468 breast): < 10 nM
- TGI (MDA-MB-468 breast): 160 nM
- GI50 (TK-10 renal): 294 nM
- TGI (TK-10 renal): 7940 nM
- GI50 (MOLT-4 leukemia): 15 nM
- TGI (MOLT-4 leukemia): 120 nM
- GI50 (ACHN renal): 100 nM
- TGI (ACHN renal): > 100000 nM
- GI50 (MDA-MB-231 breast): 2270 nM
- TGI (MDA-MB-231 breast): > 100000 nM
- GI50 (SN12C renal): 31.7 nM
- TGI (SN12C renal): 8950 nM
- GI50 (KM12 colon): 1360 nM
- TGI (KM12 colon): > 100000 nM
- GI50 (UO-31 renal): 187 nM
- TGI (UO-31 renal): 7210 nM
- GI50 (OVCAR-8 ovarian): 1440 nM
- TGI (OVCAR-8 ovarian): > 100000 nM
- GI50 (CCRF-CEM leukemia): 89.1 nM
- TGI (CCRF-CEM leukemia): 1550 nM
- GI50 (SK-MEL-5 melanoma): 1030 nM
- TGI (SK-MEL-5 melanoma): 11900 nM
- GI50 (OVCAR-3 ovarian): 61 nM
- TGI (OVCAR-3 ovarian): 3100 nM
- GI50 (T-47D breast): < 10 nM
- TGI (T-47D breast): 42.6 nM
- GI50 (RXF 393 renal): 12.5 nM
- TGI (RXF 393 renal): 76.3 nM
- GI50 ([…]-0 renal): 76 nM
- TGI (786-0 renal): 3770 nM
- GI50 (SK-MEL-28 melanoma): 89.6 nM
- TGI (SK-MEL-28 melanoma): 6790 nM
- GI50 (CAKI-1 renal): 23 nM
- TGI (CAKI-1 renal): 18100 nM
